Measurements as given in patent US20250057808A1, “COMPOSITION COMPRISING BETA LACTAM FOR TREATING ALCOHOL DEPENDENCE AND ALCOHOL ASSOCIATED DISEASES OR CONDITIONS” (Temple University of the Commonwealth System of Higher …, priority 2023, published 2025).
Entries after “also recorded” stand apart in the source; their conditions may differ.

How the values were obtained:
GLT-1 = assay: Western blot GLT-1 expression in NAc-core, NAc-shell and liver (50 mg/kg study); assay type: in vivo, P rats; settings: MC-100093 50 mg/kg or ceftriaxone 200 mg/kg i.p. 5 days; for Protein expression of GLT-1 in the NAc-shell: vs Ethanol group
Protocol: (§1) We used micro-punch procedure to dissect the subregions of the NAc such as NAc-core and NAc-shell as well as the subregions of prefrontal cortex such as infralimbic (IL) and prelimbic (PL) from the brain on day 6 after the last injection day. P rats were removed from the cage and rapidly euthanized by CO2 inhalation followed by rapid decapitation with a guillotine. Brains were isolated and immediately frozen on dry ice and stored at −80° C. The stereotaxic coordinates provided by Paxinos and colleague's rat brain stereotactic atlas was used to isolate NAc-core and NAc-shell using a cryostat apparatus (−20° C.), which then kept at −80° C. for later western blot analyses.
(§2) Western Blot assay was performed to measure changes in the expression of GLT-1, xCT, mGluR1, mGluR5, PPAR-α, PPARγ, GAPDH and β-tubulin in the NAc-core and NAc-shell as described in previous publications. A lysis buffer containing protease and phosphatase inhibitors was used to generate a homogenate of liver, Nac-core, and Nac-shell samples. The amount of protein was quantified using a detergent compatible protein assay (Bio-Rad, Hercules, CA, USA) for each sample. Samples were mixed with laemmli dye and loaded with equal amounts on polyacrylamide gels (10%), which separated the proteins using electrophoresis. After that, polyvinylidene difluoride (PVDF) membranes were used to transfer the proteins electrophoretically from the gels. Membranes were incubated in 5% free-fat milk in Tris-buffered saline with Tween-20 (TBST) for 30-60 minutes at room temperature. Membranes were then incubated with appropriate primary antibodies overnight at 4° C.: rabbit anti-GLT-1 (1:5000, Abcam, ab41621), rabbit anti-xCT (1:2000, Abcam, ab175186), rabbit anti-mGluR1 (1:1000, Abcam, ab82211), rabbit anti-mGluR5 (1:1000, Abcam, ab76316), rabbit anti-PPAR-α (1:1000, Abcam, ab24509), and rabbit anti-PPARγ (1:1000, Abcam, ab209350). Mouse anti-β-tubulin (1:1000; BioLegend) was used as a loading control antibody for the brain samples and rabbit anti-GAPDH (1:5000; cell signaling) was used as a loading control antibody for the liver samples. Membranes were washed five times on the next day with TBST followed by incubation with appropriate secondary antibody (1:5000) for 90 minutes at room temperature. Chemiluminescent reagents (Super Signal West Pico, Pierce Inc.) were used to detect the proteins using a GeneSys imaging system to develop the digitized blot images. Water-control group data were represented as 100% and all other values were expressed relative to control group to detect changes in the expression of the protein of interest in the brain and liver samples.
All statistical analyses were conducted with Graphpad Prism software, with p-values of 0.05 or less being statistically significant. We performed a two-way (mixed model) ANOVA followed by Bonferroni multiple comparison post-hoc test to analyze 24 h ethanol consumption, 24 h water consumption, and daily body weight. For the Western blot and oil red O staining analysis, we performed one-way ANOVA with Newman-Keuls as a post hoc multiple comparison test to measure differences between groups as a percentage (relative to control values).

mGluR1 = assay: Western blot mGluR1 expression in NAc-core and NAc-shell; assay type: in vivo, P rats; settings: MC-100093 50 mg/kg or ceftriaxone 200 mg/kg i.p. 5 days; among all groups
Protocol: as §1, §2
All statistical analyses were conducted with Graphpad Prism software, with p-values of 0.05 or less being statistically significant. […]

BDNF = assay: Western blot BDNF in subregions of mPFC and NAc; assay type: in vivo, Male P rats
Protocol: All P rats were euthanized by CO2 inhalation and decapitated with a guillotine 24 hours after the final i.p. injection was administered on Day 6 of Week 6. Brains were removed and immediately frozen on dry ice and stored at −80° C. The mPFC subregions (infralimbic cortex and prelimbic cortex) and NAc subregions (core and shell) were dissected using a cryostat machine kept at −20° C. Surgical blades were used to dissect all brain regions following visualized landmarks using the stereotaxic coordinates provided by Paxinos and colleague's rat brain stereotactic atlas. All brain regions were stored in −80° C. Western Blot analyses.
Western blot was performed to determine the expression of BDNF, TNF-α, RAGE, HMGβ-1, and β-tubulin in the subregions of mPFC and NAc as preformed in previous studies.
Brain samples were lysed with a lysing buffer containing protease inhibitors. The amount of protein in each sample was quantified using a detergent compatible protein assay (Bio-Rad, Hercules, CA, USA). Polyacrylamide gels (10%) were loaded with the lysate mixture, and proteins were separated using gel electrophoresis for 1 hour. Proteins were then transferred from the gels onto Polyvinylidene difluoride (PVDF) membranes (BioRad). After transfer, membranes were incubated for 30 minutes in a mixture of nonfat milk in 1×Tris-buffered saline with Tween-20 (TBST) at room temperature. Membranes were then incubated at 4° C. for 24 hours with primary antibodies: anti-rabbit BDNF (1:1000, Abeam, #ab108319), anti-rabbit TNF-α (1:500, Abeam, #ab9739), anti-rabbit HMGβ-1 (1:500, Abeam, #ab18256), and anti-rabbit RAGE (1:1000, Abeam, #ab37407). Anti-mouse-β-tubulin (1:1000, Cell Signaling Technology, #D71G9) was used as a loading control antibody. After incubating for 24 hours, secondary antibody such as donkey anti-rabbit (1:4000, Invitrogen, #31458) or anti-mouse (1:4000, Cell Signaling, #7076S) was added to the membrane for 1 hour at room temperature. The membranes were then washed with 1×TBST three times for 5 minutes each and then dried. Membranes were then incubated in chemiluminescent reagents (Super Signal West Pico, Pierce Inc.) for 2 minutes. Blot images were developed using ChemiDoc. Imaging System and ImageJ software version 1.53a were used to quantify and analyze the expression of BDNF, TNF-α, RAGE, HMGβ-1, and β-tubulin.
The data for the water/saline control group were expressed as 100% based on the values corresponding to the ethanol/saline and ethanol/MC-100093 groups for each set of blotting. Thus, the expression of selected proteins for each group (ethanol/saline group or ethanol/MC-100093 group) was calculated relative to the water/saline control group being set to 100%.
Statistical analyses were performed using GraphPad Prism Version 10. Two-way repeated measures ANOVA followed by Bonferroni post-hoc tests were used to compare water and ethanol intake, and body weight, amongst water group, ethanol/saline group and ethanol/MC-100093 group. A one-way ANOVA test was performed to compare the expression of the studied proteins in selected brain regions in water/saline, ethanol/saline and ethanol/MC-100093 groups. Statistical significance was determined by a p-value of or less than 0.05.

[1] = tested on: gram-positive and gram-negative bacteria; settings: cited from earlier work
[2] = rodent liver microsomes in vitro; cited from earlier work
plasma protein = settings: cited from earlier work
[3] = ethanol/MC-100093 group (100 mg/kg i.p.) compared to water/saline and ethanol/saline groups

Compound: C[C@@H](O)[C@H]1C(=O)N[C@@H]1[C@@H](C)C(=O)N1CCN(C)CC1 [MC-100093]
- Protein expression of GLT-1 in the liver (GLT-1): normalized GLT-1 level; also recorded: normalize the PPAR-α and GLT-1 levels in the liver
- Protein expression of GLT-1 in the NAc-core (GLT-1; among Control, Ethanol, Ethanol-MC, Ethanol-CEF): non-significant difference; also recorded: no significant difference
- Protein expression of GLT-1 in the NAc-shell (GLT-1): normalized GLT-1 and xCT levels in the NAc-shell
- Protein expression of GLT-1 in the NAc-shell (GLT-1; listed as MC-100095): significantly increased
- Protein expression of mGluR1 in the NAc-core (mGluR1): non-significant difference; also recorded: no significant difference
- Protein expression of mGluR1 in the NAc-shell (mGluR1): non-significant differences; also recorded: no significant difference
- BDNF expression in the NAc shell (BDNF; 100 mg/kg i.p., compared to ethanol/saline group): significant increase in BDNF expression
- Increase in BDNF expression in the NAc core (BDNF; 100 mg/kg i.p., compared to water/saline and ethanol/saline groups): 11%
- Increase in BDNF expression in the IL (mPFC) (BDNF; [3]): 40%
- Increase in BDNF expression in the PL (mPFC) (BDNF; [3]): 27%
- BDNF expression in the subregions of NAc and mPFC (summary) (BDNF; male P rats, 100 mg/kg i.p., 100 mg/kg): attenuated ethanol-induced downregulation of brain derived neurotrophic factor (BDNF) expression
- Antimicrobial / antibiotic activity [1]: without any antibiotic action; also recorded: no antibiotic activity; also recorded: no antibiotic actions; also recorded: lacking the antibacterial properties; also recorded: lacks antimicrobial activity; also recorded: does not have any antibiotic action
- Stability in liver microsomes [2]: high stability
- Binding to plasma protein (plasma protein): low binding to plasma protein
